# Reference: patent US9096624B2 (OSI Pharmaceuticals, LLC, priority 2009, dated 2015)
# Counter-ions that a name gives are not always drawn.
# Biological target: FAK (Homo sapiens, UniProt Q05397)
# Assay: biochemical
# FAK, sequence (Q05397 whole entry): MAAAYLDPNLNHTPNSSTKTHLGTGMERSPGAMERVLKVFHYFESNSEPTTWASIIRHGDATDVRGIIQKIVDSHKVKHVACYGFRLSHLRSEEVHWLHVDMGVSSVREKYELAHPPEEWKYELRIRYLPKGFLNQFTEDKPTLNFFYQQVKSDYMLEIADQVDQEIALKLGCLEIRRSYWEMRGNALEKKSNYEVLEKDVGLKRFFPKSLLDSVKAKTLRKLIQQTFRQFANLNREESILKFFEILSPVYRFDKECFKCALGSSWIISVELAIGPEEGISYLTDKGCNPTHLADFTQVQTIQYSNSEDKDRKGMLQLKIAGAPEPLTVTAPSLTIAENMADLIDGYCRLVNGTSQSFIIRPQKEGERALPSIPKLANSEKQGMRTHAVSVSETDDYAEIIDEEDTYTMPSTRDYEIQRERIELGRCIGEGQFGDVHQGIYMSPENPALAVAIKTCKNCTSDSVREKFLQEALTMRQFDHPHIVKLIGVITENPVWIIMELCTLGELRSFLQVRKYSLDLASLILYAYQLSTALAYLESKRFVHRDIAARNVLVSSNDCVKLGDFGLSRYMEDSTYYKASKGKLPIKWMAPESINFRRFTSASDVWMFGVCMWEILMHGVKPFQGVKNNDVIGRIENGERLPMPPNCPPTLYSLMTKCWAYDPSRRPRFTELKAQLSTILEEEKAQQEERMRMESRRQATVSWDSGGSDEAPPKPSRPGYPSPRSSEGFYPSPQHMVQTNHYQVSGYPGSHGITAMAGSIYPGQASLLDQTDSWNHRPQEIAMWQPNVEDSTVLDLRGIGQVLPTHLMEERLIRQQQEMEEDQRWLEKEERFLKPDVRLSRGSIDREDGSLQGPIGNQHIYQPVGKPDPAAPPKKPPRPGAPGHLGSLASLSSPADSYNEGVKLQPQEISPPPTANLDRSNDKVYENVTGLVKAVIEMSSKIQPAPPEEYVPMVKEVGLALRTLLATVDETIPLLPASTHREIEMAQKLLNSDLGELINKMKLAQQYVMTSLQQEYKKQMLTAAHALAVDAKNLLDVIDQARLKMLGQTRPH
row,SMILES,IC50 [µM]
1,"CCOP(=O)(Cc1ccc(Nc2ncc(C(F)(F)F)c(Nc3ccc(N4CCN5CCOCC5C4)c4c3C(=O)N(C)C4)n2)cc1)OCC (stereo not drawn) [Example 121, Diethyl (4-{[4-{[7-(hexahydropyrazino[2,1-c][1,4]oxazin-8(1H)-yl)-2-methyl-3-oxo-2,3-dihydro-1H-isoindol-4-yl]amino}-5-(trifluoromethyl)pyrimidin-2-yl]amino}benzyl)phosphonate]",< 1
2,"CCOP(=O)(Cc1ccc(Nc2ncc(C(F)(F)F)c(Nc3ccc(C4=CCNCC4)c4c3C(=O)N(C)C4)n2)cc1)OCC [Example 246, Diethyl (4-{[4-{[2-methyl-3-oxo-7-(1,2,3,6-tetrahydropyridin-4-yl)-2,3-dihydro-1H-isoindol-4-yl]amino}-5-(trifluoromethyl)pyrimidin-2-yl]amino}benzyl)phosphonate]",< 1
3,"CCOP(=O)(Cc1ccc(Nc2ncc(C(F)(F)F)c(Nc3ccc(-c4cnn(CCO)c4)cc3C(=O)NC)n2)cc1)OCC [Example 145, Diethyl (4-{[4-({4-[1-(2-hydroxyethyl)-1H-pyrazol-4-yl]-2-(methylcarbamoyl)phenyl}amino)-5-(trifluoromethyl)pyrimidin-2-yl]amino}benzyl)phosphonate]",< 1
4,"CCOP(=O)(Cc1ccc(Nc2ncc(C(F)(F)F)c(Nc3ccc(-c4cnn(CCOC)c4)cc3C(=O)NC)n2)cc1)OCC [Example 163, Diethyl (4-{[4-({4-[1-(2-methoxyethyl)-1H-pyrazol-4-yl]-2-(methylcarbamoyl)phenyl}amino)-5-(trifluoromethyl)pyrimidin-2-yl]amino}benzyl) phosphonate]",< 1
5,"CCOP(=O)(Cc1ccc(Nc2ncc(C(F)(F)F)c(Nc3ccc([C@H]4CC[C@H](O)CC4)cc3C(=O)N(C)C)n2)cc1)OCC [Example 173, Diethyl (4-{[4-{[2-(dimethylcarbamoyl)-4-(trans-4-hydroxycyclohexyl)phenyl]amino}-5-(trifluoromethyl)pyrimidin-2-yl]amino}benzyl)phosphonate]",< 1
6,"CCOP(=O)(Cc1ccc(Nc2ncc(C(F)(F)F)c(Nc3ccc(-c4cnn(CCN(CC)CC)c4)cc3C(=O)NC)n2)cc1)OCC [Example 180, Diethyl (4-{[4-{[4-{1-[2-(diethylamino)ethyl]-1H-pyrazol-4-yl}-2-(methylcarbamoyl)phenyl]amino}-5-(trifluoromethyl)pyrimidin-2-yl]amino}benzyl)phosphonate]",< 1
7,"CCOP(=O)(Cc1ccc(Nc2ncc(C(F)(F)F)c(Nc3ccc(N4CCN(CC(=O)O)CC4)c4c3C(=O)N(C)C4)n2)c(OC)c1)OCC [Example 252, [4-(7-{[2-({4-[(Diethoxyphosphoryl)methyl]-2-methoxyphenyl}amino)-5-(trifluoromethyl)pyrimidin-4-yl]amino}-2-methyl-1-oxo-2,3-dihydro-1H-isoindol-4-yl)piperazin-1-yl]acetic acid]",< 1
8,"CCOP(=O)(Cc1ccc(Nc2ncc(C(F)(F)F)c(Nc3ccccc3C(=O)N3CCN(C)CC3)n2)c(OC)c1)OCC [Example 179, Diethyl (3-methoxy-4-{[4-({2-[(4-methylpiperazin-1-yl)carbonyl]phenyl}amino)-5-(trifluoromethyl)pyrimidin-2-yl]amino}benzyl)phosphonate]",< 1
9,"CCOP(=O)(Cc1ccc(Nc2ncc(C(F)(F)F)c(Nc3ccc([C@H]4CC[C@H](OCC)CC4)c4c3C(=O)N(C)C4)n2)c(OC)c1)OCC [Example 170, Diethyl (4-{[4-{[7-(trans-4-ethoxycyclohexyl)-2-methyl-3-oxo-2,3-dihydro-1H-isoindol-4-yl]amino}-5-(trifluoromethyl)pyrimidin-2-yl]amino}-3-methoxybenzyl)phosphonate]",< 1
10,"CCOP(=O)(Cc1ccc(Nc2ncc(C(F)(F)F)c(Nc3ccc(N4CCN5CCOCC5C4)c4c3C(=O)N(C)C4)n2)c(OC)c1)OCC (stereo not drawn) [Example 122, Diethyl (4-{[4-{[7-(hexahydropyrazino[2,1-c][1,4]oxazin-8(1H)-yl)-2-methyl-3-oxo-2,3-dihydro-1H-isoindol-4-yl]amino}-5-(trifluoromethyl)pyrimidin-2-yl]amino}-3-methoxybenzyl)phosphonate]",< 1
11,"CCOP(=O)(OCC)C(O)c1ccc(Nc2ncc(C(F)(F)F)c(Nc3ccccc3C(=O)NC)n2)cc1 (stereo not drawn) [Example 133, Diethyl [hydroxy(4-{[4-{[2-(methylcarbamoyl)phenyl]amino}-5-(trifluoromethyl)pyrimidin-2-yl]amino}phenyl)methyl]phosphonate trifluoroacetate]",< 1
12,"CCOP(=O)(Cc1ccc(Nc2ncc(C(F)(F)F)c(Nc3cccc4c3C(=O)N(C)C4C)n2)cc1)OCC (stereo not drawn) [Example 157, Diethyl [4-({4-[(1,2-dimethyl-3-oxo-2,3-dihydro-1H-isoindol-4-yl)amino]-5-(trifluoromethyl)pyrimidin-2-yl}amino)benzyl]phosphonate]",< 1
13,"CCOP(=O)(Cc1ccc(Nc2ncc(C(F)(F)F)c(Nc3ccccc3C(=O)N3CCCC3)n2)c(OC)c1)OCC [Example 178, Diethyl (3-methoxy-4-{[4-{[2-(pyrrolidin-1-ylcarbonyl)phenyl]amino}-5-(trifluoromethyl)pyrimidin-2-yl]amino}benzyl)phosphonate]",< 1
14,"CCOP(=O)(Cc1ccc(Nc2ncc(C(F)(F)F)c(Nc3ccc([C@H]4CC[C@@H](C(=O)O)CC4)c4c3C(=O)N(C)C4)n2)c(OC)c1)OCC [Example 89, Cis-4-(7-{[2-({4-[(diethoxyphosphoryl)methyl]-2-methoxyphenyl}amino)-5-(trifluoromethyl)pyrimidin-4-yl]amino}-2-methyl-1-oxo-2,3-dihydro-1H-isoindol-4-yl)cyclohexanecarboxylic acid]",< 1
15,"CCOP(C)(=O)Cc1ccc(Nc2ncc(C(F)(F)F)c(Nc3ccc([C@H]4CC[C@@](C)(O)CC4)c4c3C(=O)N(C)C4)n2)c(OC)c1 (stereo partly drawn) [Example 200, Ethyl (4-{[4-{[7-(cis-4-hydroxy-4-methylcyclohexyl)-2-methyl-3-oxo-2,3-dihydro-1H-isoindol-4-yl]amino}-5-(trifluoromethyl)pyrimidin-2-yl]amino}-3-methoxybenzyl)methylphosphinate]",< 1
16,"CCOP(=O)(OCC)C(OC)c1ccc(Nc2ncc(C(F)(F)F)c(Nc3ccccc3C(=O)NC)n2)cc1 (stereo not drawn) [Example 160, Diethyl [methoxy(4-{[4-{[2-(methylcarbamoyl)phenyl]amino}-5-(trifluoromethyl)pyrimidin-2-yl]amino}phenyl)methyl]phosphonate]",< 1
17,"CCOP(=O)(Cc1cc(OC)c(Nc2ncc(C(F)(F)F)c(Nc3ccccc3C(=O)NC)n2)cc1F)OCC [Example 130, Diethyl (2-fluoro-5-methoxy-4-{[4-{[2-(methylcarbamoyl)phenyl]amino}-5-(trifluoromethyl)pyrimidin-2-yl]amino}benzyl)phosphonate]",< 1
18,"CCOP(=O)(Cc1ccc(Nc2ncc(C(F)(F)F)c(Nc3ccc(-c4cnn(C[C@H](O)CO)c4)cc3C(=O)NC)n2)cc1)OCC [Example 135, Diethyl (4-{[4-{[4-{1-[(2S)-2,3-dihydroxypropyl]-1H-pyrazol-4-yl}-2-(methylcarbamoyl)phenyl]amino}-5-(trifluoromethyl)pyrimidin-2-yl]amino}benzyl)phosphonate]",< 1
